According to patent US6054435A, “6-O-substituted macrolides having antibacterial activity” (priority 1999, dated 2000):
In brackets after ≈: the same amount, converted by molar mass.

Experiments:
Assay in all cases: in vitro antibacterial activity (MIC), agar dilution
Format in all cases: cell-based
[1] = tested on: Mycobacterium smegmatis ATCC 114; conditions: organism code UU; BHI agar, 35-37° C., 20 to 24 hours; unit assumed
In short: (§1)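 Agar dilution on BHI agar with twelve successive compound dilutions; plates inoculated by Steers replicator with 1:100 culture dilutions (1:10 for slow growers such as Streptococcus). MIC is the lowest concentration giving no growth, slight haze or sparse colonies versus a drug-free control.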

[2] = tested on: Streptococcus agalactiae CMX 508; conditions: organism code KK; BHI agar, 35-37° C., 20 to 24 hours; unit assumed
In short: as §1

[3] = tested on: Enterococcus faecium ATCC 8043; conditions: organism code II; BHI agar, 35-37° C., 20 to 24 hours; unit assumed
In short: as §1

[4] = tested on: Streptococcus pyogenes PIU 2548; conditions: organism code NN; BHI agar, 35-37° C., 20 to 24 hours; unit assumed
In short: as §1

[5] = tested on: Nocardia Asteroides ATCC9970; conditions: organism code VV; BHI agar, 35-37° C., 20 to 24 hours; unit assumed
In short: as §1

[6] = tested on: Staphylococcus aureus ATCC 6538P; conditions: organism code AA; BHI agar, 35-37° C., 20 to 24 hours; unit assumed
In short: as §1

[7] = tested on: Staphylococcus aureus A-5278; conditions: organism code CC; BHI agar, 35-37° C., 20 to 24 hours; unit assumed
In short: as §1

Escherichia coli SS = conditions: organism code RR; BHI agar, 35-37° C., 20 to 24 hours; unit assumed
In short: as §1

[8] = tested on: Staphylococcus aureus 1775; conditions: organism code GG; BHI agar, 35-37° C., 20 to 24 hours; unit assumed
In short: as §1

[9] = tested on: Micrococcus luteus ATCC 4698; conditions: organism code PP; BHI agar, 35-37° C., 20 to 24 hours; unit assumed
In short: (§2)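 Test compound serially diluted in Brain Heart Infusion agar across twelve plates; inocula of 1:100 dilution (1:10 for slow growers such as Streptococcus) applied by Steers replicator. MIC taken visually as lowest concentration giving no growth, slight haze or sparse isolated colonies versus drug-free growth control.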

[10] = tested on: Streptococcus Pneumonia 5649; conditions: organism code ZZA; BHI agar, 35-37° C., 20 to 24 hours; unit assumed
In short: as §1

[11] = tested on: Haemophilis Influenzae DILL AMP R; conditions: organism code WW; BHI agar, 35-37° C., 20 to 24 hours; unit assumed
In short: as §1

Escherichia coli JUHL = conditions: organism code QQ; BHI agar, 35-37° C., 20 to 24 hours; unit assumed
In short: as §1

[12] = tested on: Streptococcus bovis A-5169; conditions: organism code JJ; BHI agar, 35-37° C., 20 to 24 hours; unit assumed
In short: as §1

[13] = tested on: Staphylococcus aureus CMX 553; conditions: organism code FF; BHI agar, 35-37° C., 20 to 24 hours; unit assumed
In short: as §1

[14] = tested on: Streptococcus Pneumonia GYR 1171; conditions: organism code YY; BHI agar, 35-37° C., 20 to 24 hours; unit assumed
In short: as §1

[15] = tested on: Streptococcus pyogenes EES61; conditions: organism code LL; BHI agar, 35-37° C., 20 to 24 hours; unit assumed
In short: as §1

[16] = tested on: Streptococcus Pneumonia ATCC6303; conditions: organism code XX; BHI agar, 35-37° C., 20 to 24 hours; unit assumed
In short: as §1

[17] = tested on: Streptococcus pyogenes 930; conditions: organism code MM; BHI agar, 35-37° C., 20 to 24 hours; unit assumed
In short: as §1

Escherichia coli DC-2 = conditions: organism code SS; BHI agar, 35-37° C., 20 to 24 hours; unit assumed
In short: as §1

[18] = tested on: Streptococcus Pneumonia 5979; conditions: organism code ZZ; BHI agar, 35-37° C., 20 to 24 hours; unit assumed
In short: as §1

[19] = tested on: Staphylococcus aureus CMX 642A; conditions: organism code DD; BHI agar, 35-37° C., 20 to 24 hours; unit assumed
In short: as §1

[20] = tested on: Staphylococcus epidermidis 3519; conditions: organism code HH; BHI agar, 35-37° C., 20 to 24 hours; unit assumed
In short: as §1

[21] = tested on: Staphylococcus aureus NCTC10649M; conditions: organism code EE; BHI agar, 35-37° C., 20 to 24 hours; unit assumed
In short: as §1

[22] = tested on: Micrococcus luteus ATCC 9341; conditions: organism code OO; BHI agar, 35-37° C., 20 to 24 hours; unit assumed
In short: as §2

Candida albicans CCH 442 = conditions: organism code TT; BHI agar, 35-37° C., 20 to 24 hours; unit assumed
In short: as §1

[23] = tested on: Staphylococcus aureus A5177; conditions: organism code BB; BHI agar, 35-37° C., 20 to 24 hours; unit assumed
In short: as §1

Row | SMILES | MIC [1] | MIC [2] | MIC [3] | MIC [4] | MIC [5] | MIC [6] | MIC [7] | MIC (Escherichia coli SS) | MIC [8] | MIC [9] | MIC [10] | MIC [11] | MIC (Escherichia coli JUHL) | MIC [12] | MIC [13] | MIC [14] | MIC [15] | MIC [16] | MIC [17] | MIC (Escherichia coli DC-2) | other results
1 | CC[C@H]1OC(=O)[C@H](C)C(=O)[C@H](C)[C@@H](O[C@@H]2O[C@H](C)C[C@H](N(C)C)[C@H]2O)[C@](C)(OCC#Cc2ccc(-c3ccccc3)s2)C[C@@H](C)C(=O)[C@H](C)[C@H]2NC(=O)O[C@@]21C [Example 13] | 1.56 mg/L (≈ 1.96 µM) | 0.1 mg/L (≈ 0.126 µM) | 0.05 mg/L (≈ 0.0629 µM) | 0.39 mg/L (≈ 0.491 µM) | 0.78 mg/L (≈ 0.981 µM) | 0.39 mg/L (≈ 0.491 µM) | > 100 mg/L | 3.1 mg/L (≈ 3.9 µM) | > 100 mg/L | 0.2 mg/L (≈ 0.252 µM) | 2 mg/L (≈ 2.52 µM) | 32 mg/L (≈ 40.3 µM) | > 100 mg/L | 0.05 mg/L (≈ 0.0629 µM) | 0.39 mg/L (≈ 0.491 µM) | 0.25 mg/L (≈ 0.314 µM) | 0.02 mg/L (≈ 0.0252 µM) | 0.25 mg/L (≈ 0.314 µM) | 100 mg/L (≈ 126 µM) | > 100 mg/L | MIC [18]: 4 mg/L (≈ 5.03 µM); MIC [19]: 0.39 mg/L (≈ 0.491 µM); MIC [20]: 0.78 mg/L (≈ 0.981 µM); MIC [21]: 0.78 mg/L (≈ 0.981 µM); MIC [22]: 0.05 mg/L (≈ 0.0629 µM); MIC (Candida albicans CCH 442): > 100 mg/L; MIC [23]: 0.39 mg/L (≈ 0.491 µM)
2 | CC[C@H]1OC(=O)[C@H](C)C(=O)[C@H](C)[C@@H](O[C@@H]2O[C@H](C)C[C@H](N(C)C)[C@H]2O)[C@](C)(OC/C=C/c2cnc(-c3cccnc3)s2)C[C@@H](C)C(=O)[C@H](C)[C@H]2NC(=O)O[C@@]21C [Example 55] | 0.39 mg/L (≈ 0.488 µM) | 0.05 mg/L (≈ 0.0626 µM) | 0.05 mg/L (≈ 0.0626 µM) | 0.2 mg/L (≈ 0.25 µM) | 0.02 mg/L (≈ 0.025 µM) | 0.1 mg/L (≈ 0.125 µM) | > 100 mg/L | 0.39 mg/L (≈ 0.488 µM) | > 100 mg/L | 0.2 mg/L (≈ 0.25 µM) | 0.25 mg/L (≈ 0.313 µM) | 4 mg/L (≈ 5.01 µM) | 50 mg/L (≈ 62.6 µM) | ≤ 0.005 mg/L | 0.05 mg/L (≈ 0.0626 µM) | 0.03 mg/L (≈ 0.0375 µM) | 0.05 mg/L (≈ 0.0626 µM) | 0.03 mg/L (≈ 0.0375 µM) | 25 mg/L (≈ 31.3 µM) | 50 mg/L (≈ 62.6 µM) | MIC [18]: 2 mg/L (≈ 2.5 µM); MIC [19]: 0.05 mg/L (≈ 0.0626 µM); MIC [20]: 0.1 mg/L (≈ 0.125 µM); MIC [21]: 0.1 mg/L (≈ 0.125 µM); MIC [22]: 0.02 mg/L (≈ 0.025 µM); MIC (Candida albicans CCH 442): > 100 mg/L; MIC [23]: 0.05 mg/L (≈ 0.0626 µM)
3 | CC[C@H]1OC(=O)[C@H](C)C(=O)[C@H](C)[C@@H](O[C@@H]2O[C@H](C)C[C@H](N(C)C)[C@H]2O)[C@](C)(OC/C=C/c2nc(-c3cccs3)cs2)C[C@@H](C)C(=O)[C@H](C)[C@H]2NC(=O)O[C@@]21C [Example 67] | 0.39 mg/L (≈ 0.485 µM) | 0.01 mg/L (≈ 0.0124 µM) | 0.05 mg/L (≈ 0.0622 µM) | 0.1 mg/L (≈ 0.124 µM) | 0.1 mg/L (≈ 0.124 µM) | 0.1 mg/L (≈ 0.124 µM) | > 100 mg/L | 0.78 mg/L (≈ 0.97 µM) | > 100 mg/L | 0.1 mg/L (≈ 0.124 µM) | 0.25 mg/L (≈ 0.311 µM) | 8 mg/L (≈ 9.95 µM) | > 100 mg/L | 0.01 mg/L (≈ 0.0124 µM) | 0.1 mg/L (≈ 0.124 µM) | 0.03 mg/L (≈ 0.0373 µM) | 0.01 mg/L (≈ 0.0124 µM) | 0.03 mg/L (≈ 0.0373 µM) | 12.5 mg/L (≈ 15.5 µM) | > 100 mg/L | MIC [18]: 32 mg/L (≈ 39.8 µM); MIC [19]: 0.1 mg/L (≈ 0.124 µM); MIC [20]: 0.1 mg/L (≈ 0.124 µM); MIC [21]: 0.1 mg/L (≈ 0.124 µM); MIC [22]: 0.02 mg/L (≈ 0.0249 µM); MIC (Candida albicans CCH 442): > 100 mg/L; MIC [23]: 0.1 mg/L (≈ 0.124 µM)
4 | CC[C@H]1OC(=O)[C@H](C)C(=O)[C@H](C)[C@@H](O[C@@H]2O[C@H](C)C[C@H](N(C)C)[C@H]2O)[C@](C)(OC/C=C/c2ccc(-c3cccs3)s2)C[C@@H](C)C(=O)[C@H](C)[C@H]2NC(=O)O[C@@]21C [Example 74] | 0.39 mg/L (≈ 0.486 µM) | ≤ 0.005 mg/L | 0.02 mg/L (≈ 0.0249 µM) | 0.1 mg/L (≈ 0.125 µM) | 0.1 mg/L (≈ 0.125 µM) | 0.1 mg/L (≈ 0.125 µM) | 50 mg/L (≈ 62.3 µM) | 0.39 mg/L (≈ 0.486 µM) | 25 mg/L (≈ 31.1 µM) | 0.1 mg/L (≈ 0.125 µM) | 0.25 mg/L (≈ 0.311 µM) | 4 mg/L (≈ 4.98 µM) | 100 mg/L (≈ 125 µM) | 0.02 mg/L (≈ 0.0249 µM) | 0.1 mg/L (≈ 0.125 µM) | ≤ 0.004 mg/L | 0.01 mg/L (≈ 0.0125 µM) | ≤ 0.004 mg/L | > 100 mg/L | > 100 mg/L | MIC [18]: 2 mg/L (≈ 2.49 µM); MIC [19]: 0.1 mg/L (≈ 0.125 µM); MIC [20]: 0.1 mg/L (≈ 0.125 µM); MIC [21]: 0.2 mg/L (≈ 0.249 µM); MIC [22]: 0.02 mg/L (≈ 0.0249 µM); MIC (Candida albicans CCH 442): > 100 mg/L; MIC [23]: 0.1 mg/L (≈ 0.125 µM)
